Measured values from PMC4980837 (Archiv der Pharmazie, 2013).
Where two headings read alike, the source gives them in different places.

Tests used:
recombinant human PDE5 = recombinant human PDE5 (Homo sapiens, UniProt O76074); experiment: PDE5 inhibition, IMAP FP phosphodiesterase assay; assay type: biochemical; conditions: for inhibition at 10 µM: read-out: PDE5 % inhibition at 10 μm
PDE1A = PDE1A (Homo sapiens, UniProt P54750); experiment: PDE selectivity array, PDE1A with cGMP as substrate; conditions: for inhibition of cGMP hydrolysis by PDE1A (in words): at concentrations up to 50 μM
Sequence of PDE1A (P54750 whole entry, species assumed): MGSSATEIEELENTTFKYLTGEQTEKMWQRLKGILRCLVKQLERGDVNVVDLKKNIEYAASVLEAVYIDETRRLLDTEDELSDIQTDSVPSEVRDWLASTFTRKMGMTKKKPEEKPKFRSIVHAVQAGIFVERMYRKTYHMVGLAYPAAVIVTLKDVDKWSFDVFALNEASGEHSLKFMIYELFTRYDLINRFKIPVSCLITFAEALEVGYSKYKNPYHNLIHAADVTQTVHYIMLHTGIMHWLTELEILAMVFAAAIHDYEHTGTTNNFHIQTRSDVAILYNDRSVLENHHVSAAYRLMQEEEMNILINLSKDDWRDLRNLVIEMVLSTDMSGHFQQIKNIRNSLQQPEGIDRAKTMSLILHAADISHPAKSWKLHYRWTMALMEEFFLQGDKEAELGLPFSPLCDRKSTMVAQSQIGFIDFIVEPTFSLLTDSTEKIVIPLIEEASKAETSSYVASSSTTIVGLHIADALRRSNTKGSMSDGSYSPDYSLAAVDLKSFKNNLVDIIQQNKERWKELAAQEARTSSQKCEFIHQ

PDE2A = PDE2A (Homo sapiens, UniProt O00408); experiment: PDE selectivity array, PDE2A with cGMP as substrate; conditions: for inhibition of cGMP hydrolysis by PDE2A (in words): at concentrations up to 50 μM
Sequence of PDE2A (O00408 whole entry, species assumed): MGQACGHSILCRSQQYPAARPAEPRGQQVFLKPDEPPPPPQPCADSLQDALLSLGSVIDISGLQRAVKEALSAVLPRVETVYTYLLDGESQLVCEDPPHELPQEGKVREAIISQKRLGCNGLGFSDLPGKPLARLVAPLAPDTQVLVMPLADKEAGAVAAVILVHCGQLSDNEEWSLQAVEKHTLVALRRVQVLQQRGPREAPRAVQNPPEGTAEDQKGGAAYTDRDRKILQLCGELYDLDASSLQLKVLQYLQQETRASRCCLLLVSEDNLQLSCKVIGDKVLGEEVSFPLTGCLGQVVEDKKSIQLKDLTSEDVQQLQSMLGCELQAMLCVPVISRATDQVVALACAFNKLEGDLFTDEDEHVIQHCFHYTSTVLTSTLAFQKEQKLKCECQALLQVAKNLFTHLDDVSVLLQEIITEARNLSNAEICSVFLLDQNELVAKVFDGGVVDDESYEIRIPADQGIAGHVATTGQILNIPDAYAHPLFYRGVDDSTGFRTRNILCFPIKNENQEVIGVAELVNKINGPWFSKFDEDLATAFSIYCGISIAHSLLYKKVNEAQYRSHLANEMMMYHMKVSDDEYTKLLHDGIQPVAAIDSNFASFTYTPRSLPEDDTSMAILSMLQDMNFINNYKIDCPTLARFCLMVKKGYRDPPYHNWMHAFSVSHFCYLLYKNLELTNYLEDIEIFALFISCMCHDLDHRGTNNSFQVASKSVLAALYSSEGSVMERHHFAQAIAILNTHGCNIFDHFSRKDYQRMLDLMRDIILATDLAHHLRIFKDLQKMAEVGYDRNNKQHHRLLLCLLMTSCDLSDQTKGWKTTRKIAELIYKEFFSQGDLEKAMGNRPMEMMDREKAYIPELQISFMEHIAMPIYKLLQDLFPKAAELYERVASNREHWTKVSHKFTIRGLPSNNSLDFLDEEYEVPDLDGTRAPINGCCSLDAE

PDE3A = PDE3A (Homo sapiens, UniProt Q14432); experiment: PDE selectivity array, PDE3A with cGMP as substrate; conditions: for inhibition of cGMP hydrolysis by PDE3A (in words): at concentrations up to 50 μM
Sequence of PDE3A (Q14432 whole entry, species assumed): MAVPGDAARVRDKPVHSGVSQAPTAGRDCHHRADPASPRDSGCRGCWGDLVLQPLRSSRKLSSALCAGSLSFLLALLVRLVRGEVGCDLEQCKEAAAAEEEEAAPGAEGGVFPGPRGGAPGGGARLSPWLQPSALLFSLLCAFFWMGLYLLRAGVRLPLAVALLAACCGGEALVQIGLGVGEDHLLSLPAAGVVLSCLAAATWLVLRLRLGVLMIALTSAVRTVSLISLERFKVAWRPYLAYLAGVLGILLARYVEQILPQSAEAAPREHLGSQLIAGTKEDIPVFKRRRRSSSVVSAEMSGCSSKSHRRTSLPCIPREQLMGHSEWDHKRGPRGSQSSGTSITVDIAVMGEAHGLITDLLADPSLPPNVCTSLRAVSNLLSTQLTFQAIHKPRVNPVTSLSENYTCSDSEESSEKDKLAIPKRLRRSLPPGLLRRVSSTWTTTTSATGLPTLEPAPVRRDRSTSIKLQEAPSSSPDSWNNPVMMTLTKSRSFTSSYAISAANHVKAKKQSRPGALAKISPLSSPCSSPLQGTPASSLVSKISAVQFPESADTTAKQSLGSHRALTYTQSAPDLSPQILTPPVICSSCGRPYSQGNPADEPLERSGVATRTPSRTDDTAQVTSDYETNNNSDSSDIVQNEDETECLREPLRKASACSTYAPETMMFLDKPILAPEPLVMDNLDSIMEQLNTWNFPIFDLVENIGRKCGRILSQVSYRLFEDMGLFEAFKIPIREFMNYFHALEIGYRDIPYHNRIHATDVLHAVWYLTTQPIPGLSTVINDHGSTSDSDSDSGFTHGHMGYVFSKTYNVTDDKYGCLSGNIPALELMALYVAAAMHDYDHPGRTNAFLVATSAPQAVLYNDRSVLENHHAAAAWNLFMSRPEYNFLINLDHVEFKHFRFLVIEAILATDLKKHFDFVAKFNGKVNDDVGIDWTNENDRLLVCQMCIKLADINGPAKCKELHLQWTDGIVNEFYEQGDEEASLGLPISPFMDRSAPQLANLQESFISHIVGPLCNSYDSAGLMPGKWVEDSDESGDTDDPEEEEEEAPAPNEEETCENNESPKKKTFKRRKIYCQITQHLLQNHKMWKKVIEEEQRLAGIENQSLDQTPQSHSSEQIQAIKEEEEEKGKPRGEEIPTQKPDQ

PDE9A = PDE9A (Homo sapiens, UniProt O76083); experiment: PDE selectivity array, PDE9A with cGMP as substrate; conditions: for inhibition of cGMP hydrolysis by PDE9A (in words): at concentrations up to 50 μM
Sequence of PDE9A (O76083 whole entry, species assumed): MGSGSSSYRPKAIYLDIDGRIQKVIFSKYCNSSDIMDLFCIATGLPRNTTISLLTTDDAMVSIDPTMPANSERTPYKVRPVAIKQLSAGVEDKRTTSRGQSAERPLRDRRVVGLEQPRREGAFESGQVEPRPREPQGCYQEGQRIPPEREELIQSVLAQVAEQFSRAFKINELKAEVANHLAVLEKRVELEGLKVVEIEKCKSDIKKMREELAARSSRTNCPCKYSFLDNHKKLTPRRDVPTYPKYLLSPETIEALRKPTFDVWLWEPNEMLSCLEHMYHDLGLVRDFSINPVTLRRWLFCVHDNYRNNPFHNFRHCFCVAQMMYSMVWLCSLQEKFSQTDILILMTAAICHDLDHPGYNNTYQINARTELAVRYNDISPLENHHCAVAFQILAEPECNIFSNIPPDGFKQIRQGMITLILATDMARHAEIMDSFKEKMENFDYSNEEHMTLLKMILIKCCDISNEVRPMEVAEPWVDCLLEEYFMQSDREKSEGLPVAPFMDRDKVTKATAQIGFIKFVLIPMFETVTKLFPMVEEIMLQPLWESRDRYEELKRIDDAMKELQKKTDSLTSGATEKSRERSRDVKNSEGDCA

PDE10A = PDE10A (Homo sapiens, UniProt Q9Y233); experiment: PDE selectivity array, PDE10A with cGMP as substrate; conditions: for inhibition of cGMP hydrolysis by PDE10A (in words): at concentrations up to 50 μM
PDE11A = PDE11A (Homo sapiens, UniProt Q9HCR9); experiment: PDE selectivity array, PDE11A with cGMP and cAMP as substrates; conditions: for IC50: 10 concentrations, double replicates
Sequence of PDE11A (Q9HCR9 whole entry, species assumed): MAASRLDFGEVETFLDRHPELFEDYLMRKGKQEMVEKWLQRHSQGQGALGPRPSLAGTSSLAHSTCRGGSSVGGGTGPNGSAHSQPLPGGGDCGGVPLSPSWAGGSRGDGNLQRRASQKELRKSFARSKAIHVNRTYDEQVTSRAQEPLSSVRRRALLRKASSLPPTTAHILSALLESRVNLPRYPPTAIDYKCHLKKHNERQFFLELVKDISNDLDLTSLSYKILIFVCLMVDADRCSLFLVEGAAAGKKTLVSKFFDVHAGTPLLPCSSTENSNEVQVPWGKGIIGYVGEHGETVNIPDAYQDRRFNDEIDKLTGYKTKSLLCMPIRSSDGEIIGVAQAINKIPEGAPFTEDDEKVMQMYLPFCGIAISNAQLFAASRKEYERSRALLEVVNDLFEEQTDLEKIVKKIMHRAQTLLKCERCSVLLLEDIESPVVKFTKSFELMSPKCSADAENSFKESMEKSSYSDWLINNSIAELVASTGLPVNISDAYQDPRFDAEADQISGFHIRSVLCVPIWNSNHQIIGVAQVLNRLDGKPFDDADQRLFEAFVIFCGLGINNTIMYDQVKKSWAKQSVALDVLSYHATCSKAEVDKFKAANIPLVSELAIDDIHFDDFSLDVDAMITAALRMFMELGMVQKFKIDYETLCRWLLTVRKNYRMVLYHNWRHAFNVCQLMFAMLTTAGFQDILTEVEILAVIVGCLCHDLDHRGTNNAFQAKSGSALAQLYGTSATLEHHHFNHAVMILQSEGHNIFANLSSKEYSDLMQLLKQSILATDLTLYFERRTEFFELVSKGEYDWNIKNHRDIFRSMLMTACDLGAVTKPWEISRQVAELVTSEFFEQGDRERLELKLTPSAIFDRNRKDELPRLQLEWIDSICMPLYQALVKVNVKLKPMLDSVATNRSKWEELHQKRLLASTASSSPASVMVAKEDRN

[1] = IC50 PDE11A cAMP, substrate cAMP
[2] = IC50 PDE11A cGMP, substrate cGMP

Structure (SMILES): CC(C)(C)N1C(=O)[C@@H]2Cc3c([nH]c4ccccc34)[C@@H](c3ccc(Br)s3)N2C1=O [Compound 16, (5S,11aS) 5-(5-Bromo-2-thienyl)-2-tert-butyl-5,6,11,11a-tetrahydro-1H-imidazo[1′,5 ′:1,6]pyrido[3,4-b]indole-1,3(2H)-dione]
- IC50 (recombinant human PDE5): 1 µM

Structure (SMILES): COC(=O)[C@H]1Cc2c([nH]c3ccccc23)[C@H](c2ccc(Br)s2)N1 [Compound 2, (1R,3R) Methyl 1-(5-bromo-2-thienyl)-2,3,4,9-tetrahydro-1H-β-carboline-3-carboxylate]
- inhibition at 10 µM (recombinant human PDE5): < 60%

Structure (SMILES): C=CCN1C(=O)[C@H]2Cc3c([nH]c4ccccc34)[C@@H](c3ccc(Br)s3)N2C1=O [Compound 17, (5S,11aR) 5-(5-Bromo-2-thienyl)-2-allyl-5,6,11,11a-tetrahydro-1H-imidazo[1′,5 ′:1,6]pyrido[3,4-b]indole-1,3(2H)-dione]
- IC50 (recombinant human PDE5): 0.29 µM

Structure (SMILES): CCN1C(=O)[C@@H]2Cc3c([nH]c4ccccc34)[C@@H](c3ccc(Br)s3)N2C1=O [Compound 8, (5S,11aS) 5-(5-Bromo-2-thienyl)-2-ethyl-5,6,11,11a-tetrahydro-1H-imidazo[1′,5 ′:1,6]pyrido[3,4-b]indole-1,3(2H)-dione]
- IC50 (recombinant human PDE5; read-out: PDE5 inhibition IC50, 10 concentrations, each with double replicates): 0.16 µM
- IC50 (PDE1A): > 50 µM
- inhibition of cGMP hydrolysis by PDE1A (in words) (PDE1A): lacked the ability to inhibit cGMP hydrolysis
- IC50 (PDE2A): > 50 µM
- inhibition of cGMP hydrolysis by PDE2A (in words) (PDE2A): lacked the ability to inhibit cGMP hydrolysis
- IC50 (PDE3A): > 50 µM
- inhibition of cGMP hydrolysis by PDE3A (in words) (PDE3A): lacked the ability to inhibit cGMP hydrolysis
- IC50 (PDE9A): > 50 µM
- inhibition of cGMP hydrolysis by PDE9A (in words) (PDE9A): lacked the ability to inhibit cGMP hydrolysis
- IC50 (PDE10A): > 50 µM
- inhibition of cGMP hydrolysis by PDE10A (in words) (PDE10A): lacked the ability to inhibit cGMP hydrolysis
- IC50 (PDE11A; [1]): 11.3 µM
- IC50 (PDE11A; [2]): 7.8 µM

Structure (SMILES): CCN1CC(=O)N2[C@H](c3ccc(Br)s3)c3[nH]c4ccccc4c3C[C@@H]2C1=O [Compound 23, (6S,12aR) 6-(5-Bromo-2-thienyl)-2-ethyl-2,3,6,7,12,12a-hexahydropyrazino[1′,2 ′:1,6]pyrido[3,4-b]indole-1,4-dione]
- IC50 (recombinant human PDE5): 1.71 µM
- inhibition at 10 µM (recombinant human PDE5): 81%

Structure (SMILES): C=CCN1C(=O)[C@@H]2Cc3c([nH]c4ccccc34)[C@H](c3ccc(Br)s3)N2C1=O [Compound 19, (5R,11aS) 5-(5-Bromo-2-thienyl)-2-allyl-5,6,11,11a-tetrahydro-1H-imidazo[1′,5 ′:1,6]pyrido[3,4-b]indole-1,3(2H)-dione]
- inhibition at 10 µM (recombinant human PDE5): < 60%

Structure (SMILES): COC(=O)c1cc2c([nH]c3ccccc32)c(-c2ccc(Br)s2)n1 [Compound 25, Methyl 1-(5-bromo-2-thienyl)-β-carboline-3-carboxylate]
- PDE5 inhibition (in words) (recombinant human PDE5; SAR statement in text): no PDE5 inhibition
- inhibition at 10 µM (recombinant human PDE5): < 60%

Structure (SMILES): COC(=O)[C@@H]1Cc2c([nH]c3ccccc23)[C@@H](c2ccc(Br)s2)N1 [Compound 4, (1S,3S) Methyl 1-(5-bromo-2-thienyl)-2,3,4,9-tetrahydro-1H-β-carboline-3-carboxylate]
- inhibition at 10 µM (recombinant human PDE5): < 60%

Structure (SMILES): CCCCN1C(=O)[C@H]2Cc3c([nH]c4ccccc34)[C@@H](c3ccc(Br)s3)N2C1=O [Compound 9, (5S,11aR) 5-(5-Bromo-2-thienyl)-2-butyl-5,6,11,11a-tetrahydro-1H-imidazo[1′,5 ′:1,6]pyrido[3,4-b]indole-1,3(2H)-dione]
- IC50 (recombinant human PDE5): 0.17 µM
- inhibition at 10 µM (recombinant human PDE5): 99%
- IC50 (PDE1A): > 50 µM
- inhibition of cGMP hydrolysis by PDE1A (in words) (PDE1A): lacked the ability to inhibit cGMP hydrolysis
- IC50 (PDE2A): > 50 µM
- inhibition of cGMP hydrolysis by PDE2A (in words) (PDE2A): lacked the ability to inhibit cGMP hydrolysis
- IC50 (PDE3A): > 50 µM
- inhibition of cGMP hydrolysis by PDE3A (in words) (PDE3A): lacked the ability to inhibit cGMP hydrolysis
- IC50 (PDE9A): > 50 µM
- inhibition of cGMP hydrolysis by PDE9A (in words) (PDE9A): lacked the ability to inhibit cGMP hydrolysis
- IC50 (PDE10A): > 50 µM
- inhibition of cGMP hydrolysis by PDE10A (in words) (PDE10A): lacked the ability to inhibit cGMP hydrolysis
- IC50 (PDE11A; [1]): 4 µM
- IC50 (PDE11A; [2]): 2.3 µM
- Selectivity index IC50 (PDE11A/PDE5A) cGMP/cGMP (PDE11A; ratio of IC50 PDE11A to PDE5A, cGMP as substrate): 14

Structure (SMILES): CC(C)(C)N1C(=O)[C@H]2Cc3c([nH]c4ccccc34)[C@H](c3ccc(Br)s3)N2C1=O [Compound 14, (5R,11aR) 5-(5-Bromo-2-thienyl)-2-tert-butyl-5,6,11,11a-tetrahydro-1H-imidazo[1′,5 ′:1,6]pyrido[3,4-b]indole-1,3(2H)-dione]
- inhibition at 10 µM (recombinant human PDE5): < 60%

Structure (SMILES): COC(=O)[C@@H]1Cc2c([nH]c3ccccc23)[C@H](c2ccc(Br)s2)N1 [Compound 3, (1R,3S) Methyl 1-(5-bromo-2-thienyl)-2,3,4,9-tetrahydro-1H-β-carboline-3-carboxylate]
- inhibition at 10 µM (recombinant human PDE5): < 60%

Structure (SMILES): COC(=O)[C@H]1Cc2c([nH]c3ccccc23)[C@@H](c2ccc(Br)s2)N1 [Compound 1, (1S,3R) Methyl 1-(5-bromo-2-thienyl)-2,3,4,9-tetrahydro-1H-β-carboline-3-carboxylate]
- inhibition at 10 µM (recombinant human PDE5): < 60%

Structure (SMILES): CC(C)(C)N1C(=O)[C@H]2Cc3c([nH]c4ccccc34)[C@@H](c3ccc(Br)s3)N2C1=O [Compound 13, (5S,11aR) 5-(5-Bromo-2-thienyl)-2-tert-butyl-5,6,11,11a-tetrahydro-1H-imidazo[1′,5 ′:1,6]pyrido[3,4-b]indole-1,3(2H)-dione]
- IC50 (recombinant human PDE5): 0.39 µM
- inhibition at 10 µM (recombinant human PDE5): 97%

Structure (SMILES): CCCCN1C(=O)[C@@H]2Cc3c([nH]c4ccccc34)[C@H](c3ccc(Br)s3)N2C1=O [Compound 11, (5R,11aS) 5-(5-Bromo-2-thienyl)-2-butyl-5,6,11,11a-tetrahydro-1H-imidazo[1′,5 ′:1,6]pyrido[3,4-b]indole-1,3(2H)-dione]
- inhibition at 10 µM (recombinant human PDE5): < 60%

Structure (SMILES): C=CCN1C(=O)[C@@H]2Cc3c([nH]c4ccccc34)[C@@H](c3ccc(Br)s3)N2C1=O [Compound 20, (5S,11aS) 5-(5-Bromo-2-thienyl)-2-allyl-5,6,11,11a-tetrahydro-1H-imidazo[1′,5 ′:1,6]pyrido[3,4-b]indole-1,3(2H)-dione]
- IC50 (recombinant human PDE5): 0.32 µM
- inhibition at 10 µM (recombinant human PDE5): 97%

Structure (SMILES): CCCCN1C(=O)[C@@H]2Cc3c([nH]c4ccccc34)[C@@H](c3ccc(Br)s3)N2C1=O [Compound 12, (5S,11aS) 5-(5-Bromo-2-thienyl)-2-butyl-5,6,11,11a-tetrahydro-1H-imidazo[1′,5 ′:1,6]pyrido[3,4-b]indole-1,3(2H)-dione]
- IC50 (recombinant human PDE5): 0.47 µM
- inhibition at 10 µM (recombinant human PDE5): 92%

Structure (SMILES): CN1CC(=O)N2[C@H](c3ccc4c(c3)OCO4)c3[nH]c4ccccc4c3C[C@@H]2C1=O [Tadalafil, tadalafil, reference compound]
- IC50 (PDE1A): > 50 µM
- inhibition of cGMP hydrolysis by PDE1A (in words) (PDE1A): lacked the ability to inhibit cGMP hydrolysis
- IC50 (PDE2A): > 50 µM
- inhibition of cGMP hydrolysis by PDE2A (in words) (PDE2A): lacked the ability to inhibit cGMP hydrolysis
- IC50 (PDE3A): > 50 µM
- inhibition of cGMP hydrolysis by PDE3A (in words) (PDE3A): lacked the ability to inhibit cGMP hydrolysis
- IC50 (PDE9A): > 50 µM
- inhibition of cGMP hydrolysis by PDE9A (in words) (PDE9A): lacked the ability to inhibit cGMP hydrolysis
- IC50 (PDE10A): > 50 µM
- inhibition of cGMP hydrolysis by PDE10A (in words) (PDE10A): lacked the ability to inhibit cGMP hydrolysis

Structure (SMILES): C=CCN1C(=O)[C@H]2Cc3c([nH]c4ccccc34)[C@H](c3ccc(Br)s3)N2C1=O [Compound 18, (5R,11aR) 5-(5-Bromo-2-thienyl)-2-allyl-5,6,11,11a-tetrahydro-1H-imidazo[1′,5 ′:1,6]pyrido[3,4-b]indole-1,3(2H)-dione]
- IC50 (recombinant human PDE5): 5.4 µM

Structure (SMILES): CCCCN1C(=O)[C@H]2Cc3c([nH]c4ccccc34)[C@H](c3ccc(Br)s3)N2C1=O [Compound 10, (5R,11aR) 5-(5-Bromo-2-thienyl)-2-butyl-5,6,11,11a-tetrahydro-1H-imidazo[1′,5 ′:1,6]pyrido[3,4-b]indole-1,3(2H)-dione]
- inhibition at 10 µM (recombinant human PDE5): < 60%

Structure (SMILES): CC(C)(C)N1C(=O)[C@@H]2Cc3c([nH]c4ccccc34)[C@H](c3ccc(Br)s3)N2C1=O [Compound 15, (5R,11aS) 5-(5-Bromo-2-thienyl)-2-tert-butyl-5,6,11,11a-tetrahydro-1H-imidazo[1′,5 ′:1,6] pyrido[3,4-b]indole-1,3(2H)-dione]
- inhibition at 10 µM (recombinant human PDE5): < 60%

Structure (SMILES): CCN1CC(=O)N2[C@H](c3ccc(Br)s3)c3[nH]c4ccccc4c3C[C@H]2C1=O [Compound 24, (6S,12aS) 6-(5-Bromo-2-thienyl)-2-ethyl-2,3,6,7,12,12a-hexahydropyrazino[1′,2 ′:1,6]pyrido[3,4-b]indole-1,4-dione]
- IC50 (recombinant human PDE5): 1 µM
- inhibition at 10 µM (recombinant human PDE5): 87%
